# Data as given in patent US20250171437A1 (Agios Pharmaceuticals,Inc., priority 2022, published 2025).
# Molecular target: T1, human PAH with the R408W mutation (A375 R408W cells) (Homo sapiens, UniProt P00439, R408W)
# T1 construct: expressed in transfected cells
# T1 sequence (P00439 1-452 R408W): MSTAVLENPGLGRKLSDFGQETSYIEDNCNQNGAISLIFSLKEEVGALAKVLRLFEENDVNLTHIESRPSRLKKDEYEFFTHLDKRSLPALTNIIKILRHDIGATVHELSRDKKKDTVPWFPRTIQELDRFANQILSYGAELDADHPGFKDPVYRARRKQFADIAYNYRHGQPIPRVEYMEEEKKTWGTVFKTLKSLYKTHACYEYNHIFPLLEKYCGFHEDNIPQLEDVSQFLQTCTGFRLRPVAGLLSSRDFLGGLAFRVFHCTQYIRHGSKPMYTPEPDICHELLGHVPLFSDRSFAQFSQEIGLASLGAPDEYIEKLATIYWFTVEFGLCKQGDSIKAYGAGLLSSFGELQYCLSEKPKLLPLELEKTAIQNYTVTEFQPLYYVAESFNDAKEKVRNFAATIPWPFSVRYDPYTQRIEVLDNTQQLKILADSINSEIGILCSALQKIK
# Assay: Cell Based Phenylalanine Flux Assay
# Conditions: A375 R408W cells; 24 hrs with compound, then 20 μM sepiapterin and 800 μM 13C9,15N-Phenylalanine for 4 hours; 13C-Tyrosine by LC-MS; average where tested multiple times
# How it was run: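 A375 cells stably expressing lentiviral human PAH R408W were treated with compounds (10-point 2-fold dilutions, 0.5% DMSO, duplicate) for 24 h at 37 °C. Then 20 μM sepiapterin and 800 μM 13C9,15N-Phe were added for 4 h; media 13C-Tyr was measured by LC-MS to give AC50.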
row,AC50 [µM],Structure (SMILES)
1,1 to 5,"O=C(c1ccnn1C(F)F)N1CCc2[nH]cnc2[C@@H]1c1nc2ccc(F)c(F)c2o1 [Example 514, (R)-(4-(6,7-difluorobenzo[d]oxazol-2-yl)-6,7-dihydro-1H-imidazo[4,5-c]pyridin-5(4H)-yl)(1-(difluoromethyl)-1H-pyrazol-5-yl)methanone]"
2,1 to 5,"O=C(c1oc(C2(O)CC2)nc1C(F)F)N1CCc2[nH]cnc2[C@@H]1c1nc2ccc(F)cc2o1 [Example 238, (R)-(4-(difluoromethyl)-2-(1-hydroxycyclopropyl)oxazol-5-yl)(4-(6-fluorobenzo[d]oxazol-2-yl)-6,7-dihydro-1H-imidazo[4,5-c]pyridin-5(4H)-yl)methanone]"
3,≤ 0.5,"COc1cccc2nc([C@@H]3c4nc[nH]c4CCN3C(=O)c3oc(C(C)(C)O)nc3C(F)F)oc12 [Example 455, (S)-(4-(difluoromethyl)-2-(2-hydroxypropan-2-yl)oxazol-5-yl)(4-(7-methoxybenzo[d]oxazol-2-yl)-6,7-dihydro-1H-imidazo[4,5-c]pyridin-5(4H)-yl)methanone]"
4,≤ 0.5,"O=C(c1ocnc1C(F)F)N1CCc2[nH]cnc2[C@H]1c1nc2cc(Cl)cc(F)c2o1 [Example 608, (S)-(4-(5-chloro-7-fluorobenzo[d]oxazol-2-yl)-6,7-dihydro-1H-imidazo[4,5-c]pyridin-5(4H)-yl)(4-(difluoromethyl)oxazol-5-yl)methanone]"
5,1 to 5,"COc1cccc2oc([C@@H]3c4nc[nH]c4CCN3C(=O)c3ncnn3C)nc12 [Example 903, (S)-(4-(4-methoxybenzo[d]oxazol-2-yl)-6,7-dihydro-1H-imidazo[4,5-c]pyridin-5(4H)-yl)(1-methyl-1H-1,2,4-triazol-5-yl)methanone]"
6,0.5 to 1,"Cn1ccc(-c2nc(C(F)F)c(C(=O)N3CCc4[nH]cnc4[C@@H]3c3nc4cccc(F)c4o3)o2)n1 [Example 592, (R)-(4-(difluoromethyl)-2-(1-methyl-1H-pyrazol-3-yl)oxazol-5-yl)(4-(7-fluorobenzo[d]oxazol-2-yl)-6,7-dihydro-1H-imidazo[4,5-c]pyridin-5(4H)-yl)methanone]"
7,0.5 to 1,"O=C(c1ccnn1C(F)F)N1CCc2[nH]cnc2[C@H]1c1nc2ccc(F)c(F)c2o1 [Example 513, (S)-(4-(6,7-difluorobenzo[d]oxazol-2-yl)-6,7-dihydro-1H-imidazo[4,5-c]pyridin-5(4H)-yl)(1-(difluoromethyl)-1H-pyrazol-5-yl)methanone]"
8,0.5 to 1,"CC(C)(O)C1CCN(c2ccc3c(C(=O)N4CCc5[nH]cnc5[C@H]4c4nc5c(F)cccc5o4)cnn3c2)CC1 [Example 507, (S)-(4-(4-fluorobenzo[d]oxazol-2-yl)-6,7-dihydro-1H-imidazo[4,5-c]pyridin-5(4H)-yl)(6-(4-(2-hydroxypropan-2-yl)piperidin-1-yl)pyrazolo[1,5-a]pyridin-3-yl)methanone]"
9,≥ 5,"O=C(CCc1nccs1)N1CCc2[nH]cnc2[C@@H]1c1nc2c(F)cccc2o1 [Example 398, (R)-1-(4-(4-fluorobenzo[d]oxazol-2-yl)-6,7-dihydro-1H-imidazo[4,5-c]pyridin-5(4H)-yl)-3-(thiazol-2-yl)propan-1-one]"
10,≤ 0.5,"O=C(c1c(C(F)(F)F)nn2ccccc12)N1CCc2[nH]cnc2[C@H]1c1nc2cc(F)ccc2o1 [Example 915, (S)-(4-(5-fluorobenzo[d]oxazol-2-yl)-6,7-dihydro-1H-imidazo[4,5-c]pyridin-5(4H)-yl)(2-(trifluoromethyl)pyrazolo[1,5-a]pyridin-3-yl)methanone]"
11,0.5 to 1,"O=C(c1ocnc1C(F)F)N1CCc2[nH]cnc2[C@@H]1c1nc2ccc(Br)cc2o1 [Example 146, (R)-(4-(6-bromobenzo[d]oxazol-2-yl)-6,7-dihydro-1H-imidazo[4,5-c]pyridin-5(4H)-yl)(4-(difluoromethyl)oxazol-5-yl)methanone]"
12,≤ 0.5,"COc1ccc2c(C(=O)N3CCc4[nH]cnc4[C@H]3c3nc4cccc(F)c4o3)cnn2c1 [Example 325, (S)-(4-(7-fluorobenzo[d]oxazol-2-yl)-6,7-dihydro-1H-imidazo[4,5-c]pyridin-5(4H)-yl)(6-methoxypyrazolo[1,5-a]pyridin-3-yl)methanone]"
13,≤ 0.5,"Cc1ccc(C)c2oc([C@@H]3c4nc[nH]c4CCN3C(=O)c3ocnc3C(F)F)nc12 [Example 890, (S)-(4-(difluoromethyl)oxazol-5-yl)(4-(4,7-dimethylbenzo[d]oxazol-2-yl)-6,7-dihydro-1H-imidazo[4,5-c]pyridin-5(4H)-yl)methanone]"
14,1 to 5,"O=C(c1oc(-c2ncccn2)nc1C(F)F)N1CCc2[nH]cnc2[C@H]1c1nc2cc(F)ccc2o1 [Example 661, (S)-(4-(difluoromethyl)-2-(pyrimidin-2-yl)oxazol-5-yl)(4-(5-fluorobenzo[d]oxazol-2-yl)-6,7-dihydro-1H-imidazo[4,5-c]pyridin-5(4H)-yl)methanone]"
15,0.5 to 1,"Cn1ccc(-c2nc(C(F)F)c(C(=O)N3CCc4[nH]cnc4[C@@H]3c3nc4cc(F)ccc4o3)o2)n1 [Example 412, (R)-(4-(difluoromethyl)-2-(1-methyl-1H-pyrazol-3-yl)oxazol-5-yl)(4-(5-fluorobenzo[d]oxazol-2-yl)-6,7-dihydro-1H-imidazo[4,5-c]pyridin-5(4H)-yl)methanone]"
16,≤ 0.5,"Cc1cc(F)cc2nc([C@@H]3c4nc[nH]c4CCN3C(=O)c3ocnc3C(F)F)oc12 [Example 657, (S)-(4-(difluoromethyl)oxazol-5-yl)(4-(5-fluoro-7-methylbenzo[d]oxazol-2-yl)-6,7-dihydro-1H-imidazo[4,5-c]pyridin-5(4H)-yl)methanone]"
17,0.5 to 1,"Cn1nc(C(F)(F)F)nc1C(=O)N1CCc2[nH]cnc2[C@H]1c1nc2cccc(F)c2o1 [Example 279, (S)-(4-(7-fluorobenzo[d]oxazol-2-yl)-6,7-dihydro-1H-imidazo[4,5-c]pyridin-5(4H)-yl)(1-methyl-3-(trifluoromethyl)-1H-1,2,4-triazol-5-yl)methanone]"
18,0.5 to 1,"Cc1ccc2oc([C@@H]3c4nc[nH]c4CCN3C(=O)c3ncc(Cl)s3)nc2c1 [Example 1, (S)-(5-chlorothiazol-2-yl)(4-(5-methylbenzo[d]oxazol-2-yl)-6,7-dihydro-1H-imidazo[4,5-c]pyridin-5(4H)-yl)methanone]"
19,1 to 5,"O=C(c1oc(C2(O)CC2)nc1C(F)F)N1CCc2[nH]cnc2[C@@H]1c1nc2c(F)cccc2o1 [Example 216, (R)-(4-(difluoromethyl)-2-(1-hydroxycyclopropyl)oxazol-5-yl)(4-(4-fluorobenzo[d]oxazol-2-yl)-6,7-dihydro-1H-imidazo[4,5-c]pyridin-5(4H)-yl)methanone]"
20,≤ 0.5,"O=C(c1oc(-c2cncnc2)nc1C(F)F)N1CCc2[nH]cnc2[C@H]1c1nc2cccc(F)c2o1 [Example 742, (S)-(4-(difluoromethyl)-2-(pyrimidin-5-yl)oxazol-5-yl)(4-(7-fluorobenzo[d]oxazol-2-yl)-6,7-dihydro-1H-imidazo[4,5-c]pyridin-5(4H)-yl)methanone]"
21,≤ 0.5,"O=C(c1ocnc1C(F)F)N1CCc2[nH]cnc2[C@@H]1c1nc2cc(Br)ccc2o1 [Example 150, (R)-(4-(5-bromobenzo[d]oxazol-2-yl)-6,7-dihydro-1H-imidazo[4,5-c]pyridin-5(4H)-yl)(4-(difluoromethyl)oxazol-5-yl)methanone]"
22,0.5 to 1,"CC(C)n1ncnc1C(=O)N1CCc2[nH]cnc2[C@@H]1c1nc2ccccc2o1 [Example 706, (R)-(4-(benzo[d]oxazol-2-yl)-6,7-dihydro-1H-imidazo[4,5-c]pyridin-5(4H)-yl)(1-isopropyl-1H-1,2,4-triazol-5-yl)methanone]"

# Same assay, conditions: A375 cells expressing R408W PAH; 24 hrs with compound, then 20 μM sepiapterin and 800 μM 13C9,15N-Phenylalanine for 4 hours; 13C-Tyrosine by LC-MS; average where tested multiple times
row,AC50 [µM],Structure (SMILES)
1,1 to 5,O=C(c1nnc(-c2ncccc2F)o1)N1CCc2[nH]cnc2C1c1nc2cc(F)ccc2o1 (stereo not shown)
2,1 to 5,CC(C)(c1nc(C(F)F)c(C(=O)N2CCc3[nH]cnc3C2c2nc3cc(F)ccc3o2)o1)S(C)(=O)=O (stereo not shown)
3,≥ 5,O=C(c1cnn2cc(CN3CCC(F)(F)C3)ccc12)N1CCc2[nH]cnc2C1c1nc2cc(F)ccc2o1 (stereo not shown)
4,1 to 5,Nc1cc2c(C(=O)N3CCc4[nH]cnc4C3c3nc4cc(F)ccc4o3)cnn2cc1F (stereo not shown)
5,1 to 5,O=C(c1nnc(-c2ccncn2)o1)N1CCc2[nH]cnc2C1c1nc2cc(F)ccc2o1 (stereo not shown)
6,≥ 5,COc1cccc2nc(C3c4nc[nH]c4CCN3C(=O)c3cc(C(C)(C)C)nn3C)oc12 (stereo not shown)
7,1 to 5,Cc1ccc2nc(C3c4nc[nH]c4CCN3C(=O)c3cnn4cc(CN(C)C)ccc34)oc2c1 (stereo not shown)
8,1 to 5,O=C(c1cnn2cc(N3CCC(O)CC3)ccc12)N1CCc2[nH]cnc2C1c1nc2c(F)cccc2o1 (stereo not shown)
9,1 to 5,Cc1cccc2nc(C3c4nc[nH]c4CCN3C(=O)c3ccn(-c4ccccn4)n3)oc12 (stereo not shown)
10,≥ 5,COCCNc1nnc(C(=O)N2CCc3[nH]cnc3C2c2nc3cc(F)ccc3o2)o1 (stereo not shown)
11,≥ 5,Cn1cncc1-c1nnc(C(=O)N2CCc3[nH]cnc3C2c2nc3c(F)ccc(F)c3o2)o1 (stereo not shown)
12,≥ 5,O=C(c1cnn2cc(N3CCC(O)CC3)ccc12)N1CCc2[nH]cnc2C1c1nc2c(F)c(F)ccc2o1 (stereo not shown)
